Key:
Format in all cases: in vivo
[1] = tested on: giant foxtail (Setaria faberii); assay: Test A preemergence; details: Preemergence; for Plant response rating, Foxtail, Giant: 125 g ai/ha, visual injury after approximately 10 d, 0 to 100 scale where 0 is no effect and 100 is complete control; for Foxtail, Giant plant response rating (0 to 100 scale, 0 is no effect, 100 is complete control): 500 g ai/ha, visual injury approx. 10 d
Outline: (§1)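 Visual injury scores from 0, no effect, to 100, complete control, were assigned versus untreated controls roughly 10 d after treatment in the greenhouse. Test chemicals, formulated with surfactant in a non-phytotoxic solvent, were applied to planted seeds as a preemergence soil spray or postemergence to one- to two-leaf plants 2 to 10 cm tall, in loam–sand soil.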

[2] = tested on: ryegrass, Italian (Italian ryegrass, Lolium multiflorum); assay: Test A preemergence; details: Preemergence; for Plant response rating, Ryegrass, Italian: 125 g ai/ha, visual injury after approximately 10 d, 0 to 100 scale where 0 is no effect and 100 is complete control; for Ryegrass, Italian plant response rating (0 to 100 scale, 0 is no effect, 100 is complete control): 500 g ai/ha, visual injury approx. 10 d
Outline: as §1

[3] = tested on: ragweed (common ragweed, Ambrosia elatior); assay: Test A preemergence; details: Preemergence; for Plant response rating, Ragweed: 125 g ai/ha, visual injury after approximately 10 d, 0 to 100 scale where 0 is no effect and 100 is complete control; for Ragweed plant response rating (0 to 100 scale, 0 is no effect, 100 is complete control): 500 g ai/ha, visual injury approx. 10 d
Outline: as §1

[4] = tested on: pigweed (Amaranthus retroflexus); assay: Test A preemergence; details: Preemergence; for Plant response rating, Pigweed: 125 g ai/ha, visual injury after approximately 10 d, 0 to 100 scale where 0 is no effect and 100 is complete control; for Pigweed plant response rating (0 to 100 scale, 0 is no effect, 100 is complete control): 500 g ai/ha, visual injury approx. 10 d
[5] = tested on: barnyardgrass (Echinochloa crus-galli); assay: Test A preemergence; details: Preemergence; for Plant response rating, Barnyardgrass: 125 g ai/ha, visual injury after approximately 10 d, 0 to 100 scale where 0 is no effect and 100 is complete control; for Barnyardgrass plant response rating (0 to 100 scale, 0 is no effect, 100 is complete control): 500 g ai/ha, visual injury approx. 10 d
Outline: as §1

Kochia (Kochia scoparia) [6] = assay: Test A preemergence; details: Preemergence; for Plant response rating, Kochia: 125 g ai/ha, visual injury after approximately 10 d, 0 to 100 scale where 0 is no effect and 100 is complete control; for Kochia plant response rating (0 to 100 scale, 0 is no effect, 100 is complete control): 500 g ai/ha, visual injury approx. 10 d
Outline: as §1

[7] = tested on: giant foxtail (Setaria faberii); assay: Test A postemergence
Outline: as §1

[8] = tested on: ryegrass, Italian (Italian ryegrass, Lolium multiflorum); assay: Test A postemergence
Outline: as §1

[9] = tested on: Galium (catchweed bedstraw, Galium aparine); assay: Test A postemergence
Outline: as §1

[10] = tested on: ragweed (common ragweed, Ambrosia elatior); assay: Test A postemergence
Outline: as §1

[11] = tested on: pigweed (Amaranthus retroflexus); assay: Test A postemergence
Outline: as §1

[12] = tested on: blackgrass (Alopecurus myosuroides); assay: Test A postemergence
Outline: as §1

[13] = tested on: wheat (Triticum aestivum); assay: Test A postemergence
Outline: as §1

corn (Zea mays) = assay: Test A postemergence
Outline: as §1

[14] = tested on: barnyardgrass (Echinochloa crus-galli); assay: Test A postemergence
Outline: as §1

Kochia (Kochia scoparia) [15] = assay: Test A postemergence
Outline: as §1

[16] = tested on: sedge, umbrella (small-flower umbrella sedge, Cyperus difformis); assay: Test B flooded paddy test; details: Flood, 250 g ai/ha; 0 to 100 scale where 0 is no effect and 100 is complete control; 13 to 15 d
Outline: (§2)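 Response scored visually against untreated controls, 0 = no effect and 100 = complete control, 13–15 d after treatment in the greenhouse. Compounds added to paddy water held 3 cm above soil surface. Treatment given at 2-leaf stage.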

rice (Oryra sativa) = assay: Test B flooded paddy test; details: Flood, 250 g ai/ha; 0 to 100 scale where 0 is no effect and 100 is complete control; 13 to 15 d
Outline: as §2

[17] = tested on: ducksalad (Heteranthera limosa); assay: Test B flooded paddy test; details: Flood, 250 g ai/ha; 0 to 100 scale where 0 is no effect and 100 is complete control; 13 to 15 d
Outline: as §2

[18] = tested on: barnyardgrass (Echinochloa crus-galli); assay: Test B flooded paddy test; details: Flood, 250 g ai/ha; 0 to 100 scale where 0 is no effect and 100 is complete control; 13 to 15 d
Outline: as §2

[19] = 125 g ai/ha, postemergence, visual injury rating on 0 to 100 scale (0 no effect, 100 complete control), approx. 10 d
[20] = Postemergence, 500 g ai/ha, 0 to 100 scale where 0 is no effect and 100 is complete control
[21] = 125 g ai/ha, postemergence, visual rating after approx. 10 d, 0 to 100 scale (0 no effect, 100 complete control)

CN1CC(c2cccc(OC(F)F)c2)C(C(=O)Nc2ccccc2S(C)(=O)=O)C1=O (stereo not drawn) [Compound 523]
Plant response rating, Foxtail, Giant [1]: 90
Foxtail, Giant plant response rating (0 to 100 scale, 0 is no effect, 100 is complete control) [1]: 90
Plant response rating, Ryegrass, Italian [2]: 40
Ryegrass, Italian plant response rating (0 to 100 scale, 0 is no effect, 100 is complete control) [2]: 90
Plant response rating, Ragweed [3]: 60
Ragweed plant response rating (0 to 100 scale, 0 is no effect, 100 is complete control) [3]: 80
Plant response rating, Pigweed [4]: 80
Pigweed plant response rating (0 to 100 scale, 0 is no effect, 100 is complete control) [4]: 90
Plant response rating, Barnyardgrass [5]: 90
Barnyardgrass plant response rating (0 to 100 scale, 0 is no effect, 100 is complete control) [5]: 90
Plant response rating, Kochia (Kochia (Kochia scoparia) [6]): 0
Kochia plant response rating (0 to 100 scale, 0 is no effect, 100 is complete control) (Kochia (Kochia scoparia) [6]): 80
Foxtail, Giant plant response rating [7, 19]: 80
Plant response rating, Foxtail, Giant [7, 20]: 90
Ryegrass, Italian plant response rating [8, 19]: 30
Plant response rating, Ryegrass, Italian [8, 20]: 70
Galium plant response rating [9, 19]: 50
Plant response rating, Galium [9, 20]: 60
Ragweed plant response rating [10, 19]: 50
Plant response rating, Ragweed [10, 20]: 50
Pigweed plant response rating [11, 19]: 30
Plant response rating, Pigweed [11, 20]: 60
Blackgrass plant response rating [12, 19]: 50
Plant response rating, Blackgrass [12, 20]: 70
Wheat plant response rating [13, 19]: 0
Plant response rating, Wheat [13, 20]: 70
Corn plant response rating (corn (Zea mays); [19]): 20
Plant response rating, Corn (corn (Zea mays); [20]): 80
Barnyardgrass plant response rating [14, 19]: 90
Plant response rating, Barnyardgrass [14, 20]: 90
Kochia plant response rating (Kochia (Kochia scoparia) [15]; [19]): 20
Plant response rating, Kochia (Kochia (Kochia scoparia) [15]; [20]): 50
Plant response rating, Sedge, Umbrella [16]: 0
Plant response rating, Rice (rice (Oryra sativa)): 0
Plant response rating, Ducksalad [17]: 50
Plant response rating, Barnyardgrass [18]: 50

O=C1NCC(c2cccc(C(F)(F)F)c2F)C1C(=O)Nc1cccc(F)c1F (stereo not drawn) [Compound 591]
Plant response rating, Foxtail, Giant [1]: 90
Foxtail, Giant plant response rating (0 to 100 scale, 0 is no effect, 100 is complete control) [1]: 90
Plant response rating, Ryegrass, Italian [2]: 20
Ryegrass, Italian plant response rating (0 to 100 scale, 0 is no effect, 100 is complete control) [2]: 60
Plant response rating, Ragweed [3]: 0
Ragweed plant response rating (0 to 100 scale, 0 is no effect, 100 is complete control) [3]: 60
Plant response rating, Pigweed [4]: 0
Pigweed plant response rating (0 to 100 scale, 0 is no effect, 100 is complete control) [4]: 40
Plant response rating, Barnyardgrass [5]: 90
Barnyardgrass plant response rating (0 to 100 scale, 0 is no effect, 100 is complete control) [5]: 90
Plant response rating, Kochia (Kochia (Kochia scoparia) [6]): 30
Kochia plant response rating (0 to 100 scale, 0 is no effect, 100 is complete control) (Kochia (Kochia scoparia) [6]): 60
Plant response rating, Foxtail, Giant [7, 21]: 90
Plant response rating, Foxtail, Giant [7, 20]: 90
Plant response rating, Ryegrass, Italian [8, 21]: 0
Plant response rating, Ryegrass, Italian [8, 20]: 70
Plant response rating, Galium [9, 21]: 40
Plant response rating, Galium [9, 20]: 50
Plant response rating, Ragweed [10, 21]: 0
Plant response rating, Ragweed [10, 20]: 30
Plant response rating, Pigweed [11, 21]: 20
Plant response rating, Pigweed [11, 20]: 70
Plant response rating, Blackgrass [12, 21]: 50
Plant response rating, Blackgrass [12, 20]: 60
Plant response rating, Wheat [13, 21]: 50
Plant response rating, Wheat [13, 20]: 60
Plant response rating, Corn (corn (Zea mays); [21]): 70
Plant response rating, Corn (corn (Zea mays); [20]): 80
Plant response rating, Barnyardgrass [14, 21]: 90
Plant response rating, Barnyardgrass [14, 20]: 90
Plant response rating, Kochia (Kochia (Kochia scoparia) [15]; [21]): 20
Plant response rating, Kochia (Kochia (Kochia scoparia) [15]; [20]): 60
Plant response rating, Sedge, Umbrella [16]: 0
Plant response rating, Rice (rice (Oryra sativa)): 35
Plant response rating, Ducksalad [17]: 100
Plant response rating, Barnyardgrass [18]: 65
